Columns and labels:
Assay type in all cases: cell-based, human
[1] = tested on: 4 kinds of ARaiv1 clones (ARaiv1, ARaiv1Δ1, ARaiv1Δ2, ARaiv1Δ3); experiment: reporter gene assay of ARaiv1 clones with pGL3-2×PSA reporter in COS7 cell (luciferase); details: bicalutamide added 24 hr after cotransfection, luciferase assay 24 hr later
Method: The above-mentioned 4 kinds of ARaiv1 clones (ARaiv1 and ARaiv1Δ1, ARaiv1Δ2 and ARaiv1Δ3) were respectively subcloned to a pcDNA3.1 expression vector, and the transcription activity was examined by a reporter gene assay. The ARaiv1 clone expression vector and pGL3-2×PSA reporter were cotransfected into COS7 cell. After 24 hr, DHT or an AR antagonist bicalutamide, was added, and 24 hr later, a luciferase assay was performed.

JDCaP-hr cells = experiment: JDCaP-hr cell proliferation after siRNA transfection; details: cultured for 5 days; for growth promotion due to DHT: DHT added; for cell proliferation (growth inhibition): androgen-free conditions
Method: siRNA targeting AR-specific exon 8 (siAR), siRNA targeting ARaiv1-specific exon 4b (siARaiv1) or siRNA targeting exon 1 common to the both (siDual) was transfected into JDCaP-hr cells, the cells were cultured for 5 days in an androgen-free medium added with DHT or DMSO, and the cell proliferation was measured (FIG. 7). […] On the other hand, the growth inhibitory effect was partial in the siAR transfection group.

full-length AR = experiment: Western blotting of AR production after siRNA transfection in JDCaP-hr cells; details: 48 hr from siRNA transfection
From the text: (§1) An siRNA targeting exon 4b specific to ARaiv1 (siARaiv1: 5′-[…]-3′ (SEQ ID NO: 29)) was designed and synthesized by Qiagen. In addition, an siRNA targeting exon 8 specific to AR (siAR: Hs_AR—6_HP Validated siRNA: 5′-[…]-3′ (SEQ ID NO: 30)) and an siRNA cocktail containing siRNA targeting exon 1 common to AR and ARaiv1 (siDual: OTP SMART pool, L-003400-00-0005) were purchased from Qiagen and Dharmacon, respectively. siAR, siARaiv1 or siDual was transfected into JDCaP-hr cells. RNA was extracted from the cells after 48 hr from the siRNA transfection, and the expression level of the target gene was analyzed by quantitative RT-PCR. As a result, it was confirmed that gene knockdown by each siRNA was carried out sufficiently efficiently (FIG. 6a). To examine changes in the C-terminally defective-type AR protein production, which were caused by the ARaiv1 knockdown, an extract was prepared from the cells after 48 hr from the siRNA transfection, and the production of AR and β-actin was examined by Western blotting. The production of only full-length AR in the siAR transfection group, only C-terminally defective-type AR in the siARaiv1 transfection group, and the both in the siDual transfection group decreased (FIG. 6b).

22Rv1 cells = experiment: colony formation assay of 22Rv1 cells after shRNA expression vector transfection; details: androgen-free conditions
From the text: Expression plasmids of shRNA targeting AR-specific exon 8 (shAR), shRNA targeting ARaiv1-specific exon 4b (shARaiv1) and shRNA targeting exon 1 common to the both (shDual) were constructed using siSTRIKE U6 hairpin cloning system (Promega). The target sequences of shAR and siARaiv1 were the same as those of the above-mentioned siAR and siARaiv1. As the target sequence of shRNA specific to exon 1 (shDual), the sequence of exon 1-specific siRNA (5′-[…]-3′ (SEQ ID NO: 31)) contained in siDual was used.
The expression vector of shAR, siARaiv1 or shDual was transfected into 22Rv1 cells, and a colony formation assay was carried out under androgen-free conditions. In the siARaiv1 transfection group, the number of colonies decreased to 19% of that of the non-specific shRNA (shNS) transfection group (NS group). In the shDual transfection group, the number of colonies decreased to 4% of that of the NS group, and remarkable suppression of colony formation was observed. On the other hand, the colony formation ability of the shAR transfection group was 54% of the NS group, and the decrease was weaker as compared to the ARaiv1 knockdown group.

[2] = tested on: C-terminally defective-type AR; experiment: Western blotting of AR production after siRNA transfection in JDCaP-hr cells; details: 48 hr from siRNA transfection
From the text: as §1

Compound	transcription activity of 4 kinds of ARaiv1 clones (reporter activity) [1]	growth promotion due to DHT (JDCaP-hr cells)	cell proliferation (growth inhibition) (JDCaP-hr cells)	production of full-length AR (full-length AR)	number of colonies relative to non-specific shRNA (NS) group (22Rv1 cells) [%]	production of C-terminally defective-type AR [2]
CC(O)(CS(=O)(=O)c1ccc(F)cc1)C(=O)Nc1ccc(C#N)c(C(F)(F)F)c1 (centres unmarked) [bicalutamide]	not inhibited					
siAR: siRNA targeting exon 8 specific to AR, Hs_AR—6_HP Validated siRNA: 5′-ggaacucgaucguaucauu-3′ (SEQ ID NO: 30) (GGAACUCGAUCGUAUCAUU; chemistry not given here)		remarkably inhibited	partial	decreased		
siARaiv1: siRNA targeting exon 4b specific to ARaiv1: 5′-gattgttcttgatcacata-3′ (SEQ ID NO: 29) (GATTGTTCTTGATCACATA; listed as DNA, chemistry not given here)		growth promotion due to DHT was observed	remarkable growth inhibition		19	decreased
